Assay results reported in US8022178B2, “Modified self-assembling peptides” (Massachusetts Institute of Technology, priority 2006, dated 2011).
“Also recorded” adds a separate entry of the source.

Columns and labels:
[1] = tested on: MC3T3-E1 cells; assay: Effect of RAD:DSG mixture ratio on cell proliferation (DNA contents, 7 days); format: cell-based, mouse; details: RAD:DSG mixture ratio varied from 100:0 to 0:100, FIG. 8
Experimental: Effect of a mixture of self-assembling sequence peptide (e.g., 1% RAD16-1 peptide solution) and a functionalized peptide (SEQ ID NO. 7) with self-assembling sequence (RADA) (SEQ ID NO. 67) and functional motif (RGD), was evaluated (Tables 8-9) SEQ ID NO. 7 has an additional Glycine at the N-terminus (compared to SEQ ID NO. 4), which causes an increase in hydrophobicity of the hydrogel. Biologically SEQ ID NO. 4 and SEQ ID NO. 7 are considered to have similar effects.
Hydrogels were prepared so that the mixture ratio of RAD and DSG was varied from 100:0 to 0:100 (FIG. 8). Cells were prepared and seeded as described in Example 1. Cells were cultured on hydrogels for 7 days. Cell proliferation was evaluated using DNA contents in the hydrogel as same as Example 1.

[2] = Gel stiffness of hydrogel; format: physicochemical; details: compared to RAD
[3] = tested on: MC3T3-E1 cells; assay: Confocal microscopy of cells cultured on different functional peptide (DSG) concentration; format: cell-based, mouse
[4] = target: bFGF (Homo sapiens, UniProt P09038); assay: bFGF retention in peptide matrix (ELISA); details: bFGF 175 ng/insert loaded after gelation; during PBS washing and culturing; FIG. 19
Experimental: (§1) The effect of protein retention and delivery using the self-assembling peptide were studied (Table 11). bFGF was used as a model protein. The retention of bFGF in different peptide matrix in different charge condition was measured by ELISA after washing by PBS. After washing out unbound bFGF, the effect of protein retention to self-assembling peptide matrix were evaluated the using cell culturing of HUVEC (human umbilical vein endothelial cells).
The peptide solutions provided in Table 12 were loaded in the culture inserts (10 mm diameter, Millicell-CM, Millipore) and gels were formed using PBS. After gelation, bFGF solution in PBS was added inside and outside and plated for overnight. bFGF was loaded at 175 ng/insert. After loading bFGF, the PBS inside and outside the inserts were exchanged three times (2 hours, 9 hours and 12 hours) to remove unbound bFGF (Washing). After the washing, the PBS was exchanged to the cell culture medium (EGM-2-MV, Camblex) without attached growth factor (bFGF, VEGF and EGF) and placed more than a day (such that the fluid contained in the gel is exchanged from PBS to cell culture medium), then HUVEC (human umbilical vein endothelial cells) were plated at 7.5×10^4 cells on the inserts and cultured for three days.
Cell culturing using cell culture medium (EGM-2-MV) was used without attached growth factor on peptide matrix as negative control. Cell culturing using cell culture medium (EGM-2-MV) was used with attached growth factor on peptide matrix without loading growth factor as positive control. The bFGF concentration in washing buffer (PBS) and cell culture medium (EGM-2-MV) was measured using ELISA. The washing buffer and cell culture medium were exchanged at each measurement period (2 hours, 9 hours and 12 hours for washing, and at the cell seeding (D0), Day 1 (D 1), Day 2 (D2) and Day 3 (D3)). Growth factor retention rate was calculated by accumulating the amount of measured bFGF.

[5] = tested on: HUVEC (human umbilical vein endothelial cells); assay: HUVEC culture on bFGF loaded peptide matrix; format: cell-based; details: Day 3; bFGF loaded matrix compared to negative and positive control; FIG. 21
Experimental: as §1
The peptide solutions provided in Table 12 were loaded in the culture inserts (10 mm diameter, Millicell-CM, Millipore) and gels were formed using PBS. After gelation, bFGF solution in PBS was added inside and outside and plated for overnight. bFGF was loaded at 175 ng/insert. After loading bFGF, the PBS inside and outside the inserts were exchanged three times (2 hours, 9 hours and 12 hours) to remove unbound bFGF (Washing). […]
Cell culturing using cell culture medium (EGM-2-MV) was used without attached growth factor on peptide matrix as negative control. […] The bFGF concentration in washing buffer (PBS) and cell culture medium (EGM-2-MV) was measured using ELISA. […] Growth factor retention rate was calculated by accumulating the amount of measured bFGF. […]

[6] = pI and charge of the self-assembling peptide; format: physicochemical
Experimental: (§2) A comparison of the pH dependent property of 1% Ac(RADA)4GGFHRRIKA CONH2 (SEQ ID NO. 6) solution (Code: FHR), self assembling peptide sequence was compared with the heparin-binding motif. FIG. 12 depicts the isoelectric plot and corresponding rheological data when 0.1 N NaOH solution is added to FHR solution to adjust pH. The net charge of the peptide molecule is kept ≧2 when pH<10. Until at point of pH 5.7, the solution keeps viscous state. This movement of pH point where the peptide solution become gel is controlled by the charge induced by the additional motif to the self-assembling peptide. The induced charge prevents the peptide to aggregate to form the gel. Thus, the cell and the peptide solution can be mixed near neutral pH. After complete mixing, the gel formation can be made by adding salt containing solution (e.g., a solution containing a gellation agent or an iso-osmotic solute).
FIG. 18 depicts the isoelectric plot and Rheological data of PFS 1% solution when 0.1 N NaOH solution is added. 1% Ac(RADA)4GGSKPPGTSS-CONH2 solution (Code: SKP, peptide sequence: SEQ ID NO. 7) is a hydrogel composed of peptides with a self-assembling sequence and positively-charged functional motif. Although the pI value of the peptide is 9.74 and it keeps positive charge at near pH 7 range, the gel is formed at the point of pH 4.5. This is because the charge of the molecule around pH 7 range is +1 and smaller than the charge of Ac(RADA)4GGFHRRIKA CONH2 (FHR) (bigger than 3). The charge of the whole peptide should be larger than 2 when the cell is mixed. This pH should be somewhere in 6-8 in order to minimize the damage to the cells. As this sequence is heparin-binding motif, the fiber can attach to the heparin molecule which is abundant at cell surface. This heparin-binding motif provides a specific anchor to the cell. As described in Example 1, this binding synergistically works with the other binding motif (e.g., RGD) to induce biological stimuli for cell proliferation and differentiation. This effect is not limited to the sequences previously describe, but the other motifs, including -XBBXBX- and -XBBBXXBX- sequences. […]

[7] = tested on: HUVEC (human umbilical vein endothelial cells); assay: HUVEC cell attachment on hydrogels based on various self-assembling sequence; details: HUVEC cultured for three days
Experimental: Cell attachment and viability of the hydrogels were evaluated using HUVEC (human umbilical vein endothelial cells). The peptide solutions shown in Table 22 were loaded in the culture inserts (10 mm diameter, Millicell-CM, Millipore) and gels were formed using cell culture medium (EGM-2-MV, Camblex). HUVEC were plated at 8×10^4 cells on the inserts and cultured for three days.
This implies that functionalization of the self-assembling peptide is useful regardless of the basic repetitive sequence, while the properties of hydrogel can be controlled by altering basic repetitive sequence in amino acid and length.

[8] = neutral pH range (Caplan 2002a); cited from earlier work
[9] = neutral pH range (Caplan 2002a); cited from earlier work; remark: listed apart in the source
[10] = tested on: Mouse preosteoblast cell line (MC3T3-E1); assay: MC3T3-E1 cell proliferation on hydrogels (DNA content, PicoGreen); format: cell-based; details: pre-osteoblast; when it becomes hydrogel; no data shown
Experimental: Mouse preosteoblast cell line (MC3T3-E1) was used to compare the proliferation and differentiation effects of the motifs with RAD16-1 and Collagen-I hydrogels as controls. The proliferation was measured by DNA contents and the differentiation effects were evaluated using Alkaline phosphatase (ALP) activity and secreted Osteocalcin. Alkaline phosphatase is known to be differentiation marker of osteoblast in earlier stage. Secreted Osteocalcin is known to be differentiation marker of osteoblast in later stage and its activity is correlated with the bone mineralization.
1% RAD16-I solution [self-assembling peptide solution] was obtained as RAD16-I (Puramatrix™, 3DM Inc./BD Bioscience). The functionalized peptides of Table 2 were dissolved in water at final concentration of 1% (v/w). The functionalized peptide solutions were then mixed with 1% RAD16-I solution at a ratio of 1:1 (Table 4). Each peptide solution was loaded in the Culture plate inserts (10 mm diameter, Millicell-CM, Millipore). […]
Cell proliferation was evaluated using DNA contents in the hydrogel using PicoGreen dsDNA Kits (Molecular Probes). ALP activity was quantitatively measured from cell lysis using Alkaline Phosphatase Fluorescence Assay Kit (Sigma). Osteocalcin was measured from cell culture medium using Mouse Osteocalcin EIA Kit (Biomedical Technologies Inc.).

[11] = Isoelectric plot and rheological data when 0.1 N NaOH is added (pH of gel formation); format: physicochemical; details: 1% solution, 0.1 N NaOH solution added
Text: At the point of pH 3.6, the viscous solution become gel and has a higher G′ (stiffness), G″ (viscosity) value. When the pH is increased, the gel breaks into small pieces and it becomes a solution with precipitated peptides. At lower pH, the peptide forms fibers and the fibers make the solution viscous. When the pH becomes higher, and approaches the pI value, the peptide fibers lose their charge and aggregate to form gel. The same gel formation happens when the peptide charge is screened by salts in a salt-containing solution (e.g., a solution containing a gellation agent or an iso-osmotic solute). Once the gel is formed, the fiber structure is broken into pieces to form a precipitate particle.
as §2
FIG. 18 depicts the isoelectric plot and Rheological data of PFS 1% solution when 0.1 N NaOH solution is added. 1% Ac(RADA)4GGSKPPGTSS-CONH2 solution (Code: SKP, peptide sequence: SEQ ID NO. 7) is a hydrogel composed of peptides with a self-assembling sequence and positively-charged functional motif. Although the pI value of the peptide is 9.74 and it keeps positive charge at near pH 7 range, the gel is formed at the point of pH 4.5. […]

[12] = tested on: chondrocytes; details: encapsulated chondrocytes (Kisiday 2002); cited from earlier work
[13] = tested on: HUVEC (human umbilical vein endothelial cells); assay: HUVEC cultured 2-dimensionally on hydrogels: cell attachment and morphology; format: cell-based; set-up: key to Capillary like morphology: weak: +; medium: ++; strong: +++; very strong: ++++; details: HUVEC cultured on hydrogels
Experimental: The effect of functional modified peptide matrix to HUVEC (human umbilical vein endothelial cells) was evaluated by culturing cells 2-dimensionally on the gel.
The peptide solutions shown in Table 19 were loaded in the culture inserts (10 mm diameter, Millicell-CM, Millipore) and gels were formed using cell culture medium (EGM-2-MV, Camblex). Collagen-1 and Matrigel were used as control matrices. HUVEC (human umbilical vein endothelial cells) were plated at 8×10^4 cells on the inserts and cultured up to 7 Days.

Chain of bFGF (P09038 143-288, species assumed): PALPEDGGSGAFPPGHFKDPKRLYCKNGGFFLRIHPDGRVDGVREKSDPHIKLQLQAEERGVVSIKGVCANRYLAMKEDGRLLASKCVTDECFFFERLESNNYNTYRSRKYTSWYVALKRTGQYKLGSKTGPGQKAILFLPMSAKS

## Ac(RADA)4GPRGDSGYRGDSG-CONH2 (Ac-RADARADARADARADAGPRGDSGYRGDSG-NH2) [DSG = 1% solution]
[1]
  Cell proliferation (fluorescence intensity linear to the DNA contents): drop in fluorescence and drop
[2]
  gel stiffness: less stiff gel; also recorded: lower stiffness gel
[3]; DSG ratio 10%, FIG. 9A
  cell location on the peptide matrix: stayed on the surface of the peptide matrix
[3]; DSG ratio 70%, FIG. 9B
  cell migration into the matrix: up to 300 um

## Ac(RADA)4GGDGRGDSVAYG-CONH2 (Ac-RADARADARADARADAGGDGRGDSVAYG-NH2) [SEQ ID NO. 5, Cell adhesion domain (Osteopontin); DGR-2P = 2% solution]
[4]
  bFGF (growth factor) retention rate: high in the order of KFQ-2P, FHR-2P, RAD-2P then DGR-2P
[5]
  cell attachment and cell spread: superior
[6]
  charge: negatively charged
  pI: 4.78,

## AcIEIKIEIKIGGSKPPGTS-CONH2 [ESKP]
[7]
  Cell attachment: + (+: Weak(<20%))

## Ac(FKFQ)3-CONH2 (Ac-FKFQFKFQFKFQ-NH2) [FKF = 1% solution; FKF-2P = 2% solution, reference compound]
[8]
  phase of peptide solution in neutral pH range: stays solution phase; also recorded: stays in solution
[7]
  Cell attachment: ++ (++: 20-50%)
[4]
  bFGF (growth factor) retention rate: high in the order of KFQ-2P, FHR-2P, RAD-2P then DGR-2P
[6]
  charge: positively charged
  pI: 10.30,
[9]
  charge in neutral pH range: positively charged
[10]
  cell proliferation on hydrogel: supports cell proliferation

## Ac-IEIKIEIKI-NH2 [reference compound]
[7]
  Cell attachment: ++ (++: 20-50%)

## AcIEIKIEIKIGGPFSSTKT-CONH2 [EPFS]
[7]
  Cell attachment: + (+: Weak(<20%))

## Ac(RADA)4GGSKPPGTSS-CONH2 (Ac-RADARADARADARADAGGSKPPGTSS-NH2) [Bone marrow homing; SKP = 1% solution]
[6]
  pI: 9.74
[6]; around pH 7
  charge of the molecule around pH 7 range: +1
[11]
  pH at which the viscous peptide solution becomes gel: 4.5

## AcFKFQFKFQFKFQGPRGDSGYRGDS-CONH2 [KPRG]
[7]
  Cell attachment: ++++ (++++: near confluence(>70%))

## AcIEIKIEIKIGGPRGSYRGDS-CONH2 [EPRG]
[7]
  Cell attachment: ++++ (++++: near confluence(>70%))

## AcNKLDLKLDLKLDL-CONH2 (Ac-KLDLKLDLKLDL-NH2; not fully specified) [KLD12]
[12]
  chondrocyte phenotype and ECM: retained their morphology and developed a cartilage-like, mechanically functional ECM rich in proteoglycans and type-II collagen

## Ac(RADA)4GGPFSSTKT-CONH2 (Ac-RADARADARADARADAGGPFSSTKT-NH2) [Bone marrow homing; PFS = 1% peptide solution]
[13]
  Capillary like morphology: +
  Cell attachment: ++ (++: 20-50%)
